Consider two compounds from US20240391931A1 (Bristol-Myers Squibb Company, priority 2021, published 2024).

The target in assay [1] is T1, HER2 (Homo sapiens, UniProt P04626).
T1 construct: BT474 and N87 cell lines which endogenously overexpress the HER2 wildtype (WT) protein; endogenous in cells; host or cells: BT474, N87
The experiment in a line: HER2 occupancy assay in BT474 cells. The assay is classed as cell-based. Particulars: concentration at which 50% of HER2 is irreversible bound, read-out: BT474 HER2 Occ. As to the method: In order to assess free HER2 protein, a biotinylated probe was utilized. BT474, N87, and Ba/F3-HER2YVMA cells were treated with test compound as described for HER2 signaling. After compound treatment, cells were washed three times with cold phosphate buffer saline (PBS, Life Technologies, Carlsbad, CA), and lysed in modified occupancy lysis buffer prepared with an irreversible biotinylated tool compound (1 μM) in 25 mM Tris pH 7.5, 150 mM NaCl, 1% Triton, and supplemented with cOmplete, EDTA-free Protease inhibitor cocktail (Roche), Phosphatase Inhibitor Cocktails 2 and 3 (Sigma-Aldrich), and 1 mM PMSF (Sigma-Aldrich).
To determine % occupancy, lysates were loaded into duplicate plates of the phospho (Tyr1248)/total ErbB2 whole cell lysate MSD kit (Meso-Scale Discovery) and incubated overnight. Plates were washed and incubation with either HER2-sulfoTag (1:50, Meso Scale Discovery) or Strep-Sulfo Tag (1:1000, Meso Scale Discovery), for detection of […]. A standard curve of untreated cells in serial dilution was included in each plate to independently fit streptavidin (Free HER2) and total HER2 MSD signals; non-specific signal (BSA control spots) was subtracted from each well. Free HER2 was then normalized by total HER2 for each sample. The results are reported as % DMSO control. The normalized data was fitted using a sigmoidal curve analysis program (Graph Pad Prism version 6) with variable Hill slope to determine EC50 values. The results are provided in Table 4, under columns titled “BT474-HER2 Occ”, “N87-HER2 Occ”, and “Ba/F3 YVMA-HER2 Occ”. HER2 Occ is the concentration of test compound at which 50% of HER2 is irreversible bound.

Assay [2] deals with HER2YVMA (Homo sapiens, UniProt P04626, INS775YVMA). The experiment in a line: HER2 signaling (pHER2) in BEAS2B-HER2YVMA cells. The note with it: read-out: BEAS2B YVMA pHER2 EC50. The class given is cell-based. More on the design: expressed in transfected cells; host or cells: HEK293 (pool), Ba/F3 (clones), BEAS2B (clones); lentiviral vector pCDH-CMV-MCS-EF1-Neo. As to the method:
Cell culture, plasmid cloning, and lentiviral transduction were carried out according to standard procedures. The Human HER2 cDNA construct in pCMV6-Entry for the HER2 wildtype (WT) expression was obtained from Origene. The HER2 cDNA including the 12-nucleotide insertion corresponding to YVMA insertion (HER2YVMA) was codon optimized, synthesized and cloned by GenScript (Piscataway, NJ) in pcDNA3.1. The lentiviral constructs expressing HER2YVMA and HER2 WT were sub-cloned using PCR at System Biosciences (SBI, Mountainview, CA) into lentiviral vectors pCDH-CMV-MCS-EF1-Neo and lentiviral particles were generated.
Engineered lines expressing HER2YVMA and HER2 WT were prepared in HEK293 (human embryonic kidney cells), Ba/F3 (Interleukin 3 (IL3)-dependent murine pro B cell line), and BEAS2B (primary immortalized human bronchial epithelial cell line). […]
HER2 signaling was assessed in BT474 and N87 cell lines which endogenously overexpress the HER2 wildtype (WT) protein, in NCI-H1781 cells which endogenously expresses a HER2 mutant protein containing a VC insertion in the kinase domain (HER2VC or G776delinsVC), and in engineered cell lines transduced to express the Her2 mutant protein containing the YVMA insertion (Hek293-HER2YVMA and BEAS2B-HER2YVMA). […]
HER2 signaling was evaluated using phospho (Tyr1248)/total ErbB2 whole cell lysate MSD plates (Meso-Scale Discovery, Gaithersburg, MD). […]

T1 sequence (P04626 23-1255): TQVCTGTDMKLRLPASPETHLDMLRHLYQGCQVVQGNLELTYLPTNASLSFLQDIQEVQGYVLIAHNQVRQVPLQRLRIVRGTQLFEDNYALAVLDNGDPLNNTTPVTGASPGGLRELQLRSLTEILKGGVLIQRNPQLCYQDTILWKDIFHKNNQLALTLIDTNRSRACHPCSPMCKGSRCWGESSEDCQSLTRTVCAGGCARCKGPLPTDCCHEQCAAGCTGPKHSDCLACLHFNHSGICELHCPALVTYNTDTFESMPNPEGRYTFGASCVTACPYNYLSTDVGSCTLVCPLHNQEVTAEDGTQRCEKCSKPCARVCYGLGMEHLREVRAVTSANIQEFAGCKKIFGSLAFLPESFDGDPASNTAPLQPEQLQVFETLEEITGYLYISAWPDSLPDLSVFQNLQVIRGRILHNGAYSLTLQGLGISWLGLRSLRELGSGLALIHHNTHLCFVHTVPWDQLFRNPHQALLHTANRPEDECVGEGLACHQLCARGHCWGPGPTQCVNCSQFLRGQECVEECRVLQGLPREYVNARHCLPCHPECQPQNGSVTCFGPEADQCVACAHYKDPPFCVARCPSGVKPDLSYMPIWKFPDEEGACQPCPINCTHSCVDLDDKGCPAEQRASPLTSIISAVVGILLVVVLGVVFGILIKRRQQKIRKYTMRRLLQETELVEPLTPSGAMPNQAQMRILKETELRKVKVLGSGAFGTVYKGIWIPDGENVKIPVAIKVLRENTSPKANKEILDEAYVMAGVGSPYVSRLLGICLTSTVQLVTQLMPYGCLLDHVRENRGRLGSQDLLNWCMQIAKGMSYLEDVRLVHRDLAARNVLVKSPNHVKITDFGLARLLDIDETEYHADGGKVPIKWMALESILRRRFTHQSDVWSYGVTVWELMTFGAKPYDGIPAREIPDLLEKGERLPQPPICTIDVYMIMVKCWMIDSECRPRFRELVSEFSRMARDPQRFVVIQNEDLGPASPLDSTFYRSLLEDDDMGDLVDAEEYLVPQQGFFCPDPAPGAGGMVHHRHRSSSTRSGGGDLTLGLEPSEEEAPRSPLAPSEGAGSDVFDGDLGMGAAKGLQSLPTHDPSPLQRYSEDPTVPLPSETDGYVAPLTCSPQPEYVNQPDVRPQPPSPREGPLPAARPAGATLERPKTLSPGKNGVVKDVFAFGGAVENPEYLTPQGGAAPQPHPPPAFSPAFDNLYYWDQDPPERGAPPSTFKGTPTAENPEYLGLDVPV
HER2YVMA, sequence (P04626 with tags, fused parts or gaps INS775YVMA): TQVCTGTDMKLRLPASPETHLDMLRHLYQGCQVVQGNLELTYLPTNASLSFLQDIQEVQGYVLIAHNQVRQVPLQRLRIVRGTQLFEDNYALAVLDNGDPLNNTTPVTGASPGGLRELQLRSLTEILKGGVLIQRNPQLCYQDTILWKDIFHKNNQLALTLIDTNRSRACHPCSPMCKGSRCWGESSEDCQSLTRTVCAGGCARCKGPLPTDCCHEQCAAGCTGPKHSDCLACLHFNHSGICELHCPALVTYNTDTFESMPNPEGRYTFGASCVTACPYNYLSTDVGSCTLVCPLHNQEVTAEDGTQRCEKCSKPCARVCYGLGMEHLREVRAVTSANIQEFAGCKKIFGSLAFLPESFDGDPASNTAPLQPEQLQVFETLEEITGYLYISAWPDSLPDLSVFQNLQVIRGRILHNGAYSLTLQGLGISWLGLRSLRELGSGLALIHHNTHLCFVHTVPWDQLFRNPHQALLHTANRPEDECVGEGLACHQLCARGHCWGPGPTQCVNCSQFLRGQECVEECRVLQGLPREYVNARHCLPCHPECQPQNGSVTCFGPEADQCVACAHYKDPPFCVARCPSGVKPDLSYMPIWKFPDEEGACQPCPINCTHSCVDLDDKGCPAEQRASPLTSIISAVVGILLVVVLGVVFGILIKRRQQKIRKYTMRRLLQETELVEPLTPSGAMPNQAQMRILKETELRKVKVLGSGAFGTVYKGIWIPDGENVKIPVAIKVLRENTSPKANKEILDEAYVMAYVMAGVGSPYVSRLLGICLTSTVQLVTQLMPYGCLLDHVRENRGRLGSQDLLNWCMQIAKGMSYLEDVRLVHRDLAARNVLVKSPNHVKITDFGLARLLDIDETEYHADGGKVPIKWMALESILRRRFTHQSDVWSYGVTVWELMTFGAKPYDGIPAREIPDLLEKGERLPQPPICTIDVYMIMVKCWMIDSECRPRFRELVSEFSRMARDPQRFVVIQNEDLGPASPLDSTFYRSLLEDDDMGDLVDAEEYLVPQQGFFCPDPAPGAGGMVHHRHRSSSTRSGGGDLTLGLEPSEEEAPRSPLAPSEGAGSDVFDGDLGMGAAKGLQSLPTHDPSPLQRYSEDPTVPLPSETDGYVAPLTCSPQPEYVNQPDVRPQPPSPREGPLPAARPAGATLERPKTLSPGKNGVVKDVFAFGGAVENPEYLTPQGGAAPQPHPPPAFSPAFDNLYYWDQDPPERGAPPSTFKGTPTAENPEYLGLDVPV

As for `Cc1cc(Nc2ncnc3sc4c(c23)CCN(C(=O)/C=C/CN2CCOCC2)C4)ccc1Oc1ccc2ncnn2c1` [Compound 12], the EC50 in assay [1] is below 100 nM.

Turning to `Cc1ccc(Oc2ccc(Nc3ncnc4sc5c(c34)CCN(C(=O)/C=C/CN(C)C)C5)cc2C)cn1` [Compound 8, (E)-4-(Dimethylamino)-1-(4-((3-methyl-4-((6-methylpyridin-3-yl)oxy)phenyl)amino)-5,6-dihydropyrido[4′,3′:4,5]thieno[2,3-d]pyrimidin-7(8H)-yl)but-2-en-1-one], the EC50 in assay [1] and in assay [2] was below 100 nM in each case.
